Results as given in patent US11427564B2, “Heteroaryl pyrimidine compound and pest control agent” (Nippon Soda Co., Ltd., priority 2017, dated 2022).

Assays:
[1] = test system: Aphis craccivora; experiment: Efficacy test against Aphis craccivora (spray on cowpea plants); format: in vivo; conditions: 125 ppm sprayed on cowpea plants infested with nymphs; 25° C., humidity 60%; 4 days after spraying
Protocol: The insecticidal rate was calculated by the following formula. Insecticidal rate (%)=(number of dead insects/number of tested insects)×100 Cowpea plants were raised in No. 3 pots, and nymphs of Aphis craccivora were inoculated on the primary leaves. The emulsion (1) was diluted with water so that the concentration of the compound of the present invention was 125 ppm, and the diluent was sprayed on the cowpea plants infested with nymphs of Aphis craccivora. The cowpea plants were placed in a thermostatic chamber with a temperature of 25° C. and a humidity of 60%. […] The test was repeated twice.

[2] = test system: Plutella xylostella; experiment: Efficacy test against Plutella xylostella (cabbage leaf immersion); format: in vivo; conditions: 125 ppm, cabbage leaf immersed 30 seconds; second instar larvae; 25° C., humidity 60%; 3 days after insect release
Protocol: The insecticidal rate was calculated by the following formula. Insecticidal rate (%)=(number of dead insects/number of tested insects)×100 The emulsion (1) was diluted with water so that the concentration of the compound of the present invention was 125 ppm. A cabbage leaf was immersed in the diluent for 30 seconds. This cabbage leaf was placed in a petri dish. Five second instar larvae of Plutella xylostella were released therein. The petri dish was placed in a thermostatic chamber with a temperature of 25° C. and a humidity of 60%. […] The test was repeated twice.

SMILES	melting point [°C]	insecticidal rate [1] [%]	insecticidal rate [2] [%]
Br.CCS(=O)(=O)c1cnc(-c2ncccn2)nc1-c1ccc(O)cn1	234 to 239	–	–
CCS(=O)(=O)c1cnc(-c2ncn(C)n2)nc1-c1ccc(C(F)(F)C(F)(F)C(F)(F)C(F)(F)F)nn1	182 to 185	–	–
CCS(=O)(=O)c1cnc(O)cc1-c1ccc(OCC(F)(F)C(F)(F)F)cn1 [2-11]	212 to 214	–	–
CCS(=O)(=O)c1cnc(-c2ncccn2)nc1-c1ccc(OCC(F)(F)F)nn1 [2-8]	209 to 210	–	–
CCS(=O)(=O)c1cnc(NC(=O)C(F)(F)F)nc1-c1ccc(OCC(F)(F)C(F)(F)C(F)(F)F)cn1 [1-80]	–	≥ 80	≥ 80
CCS(=O)(=O)c1cnc(N)nc1-c1ccc(C(F)(F)C(F)(F)C(F)(F)C(F)(F)F)nn1	186 to 188	–	–
